Structures can show the parent of a compound that is named as a salt. Where two headings read alike, the source gives them in different places.
What was measured:
[1] = Absorption and fluorescence spectroscopy of dyes; format: physicochemical
Protocol: Phosphate buffered saline (PBS) was at pH 7.4 unless otherwise noted.
Spectroscopy was performed using 1-cm path length, 3.5-mL quartz cuvettes from Starna Cells or 1-cm path length, 1.0-mL quartz microcuvettes from Hellma. All measurements were taken at ambient temperature (22±2° C.) in 10 mM HEPES, pH 7.3 buffer unless otherwise noted. Absorption spectra were recorded on a Cary Model 100 spectrometer (Varian); reported values for extinction coefficients (ε) are averages (n=3). Fluorescence spectra were recorded on a Cary Eclipse fluorometer (Varian). Normalized spectra are shown for clarity.

[2] = Quantum yield measurement (Quantaurus-QY spectrometer); format: physicochemical; details: for increase in quantum yield / brightness relative to parent N,N-dialkyl dye: azetidine-substituted vs parent fluorophore
Protocol: All reported quantum yield values were measured in under identical conditions using a Quantaurus-QY spectrometer (C11374, Hamamatsu). Measurements were carried out using dilute samples (A<0.1) and self-absorption corrections were performed using the instrument software. Reported values are averages (n=3).

[3] = Fluorescence lifetime measurement; details: for τ: Table 2, 10 mM HEPES pH 7.3 per table footnote
Protocol: For fluorescence lifetime measurements, a pulse picker (Model 350-160, ConOptics) was placed in the laser beam to reduce the pulse frequency from 80 MHz to 20 MHz. Samples (2 μM dye diluted in 50 mM HEPES, pH 7.2, H2O, or CH3OH) were excited at 830 nm laser wavelength and 6 mW laser power. The emitted light was collected by the fast-timing APD and fed to the single-photon counting board (TimeHarp200; PicoQuant). Timing pulses were obtained from a PIN diode (DET01CFC; ThorLabs) monitoring the 20 MHz pulse train. The temporal impulse response of the system was determined by second harmonic generation of laser pulses using a thin nonlinear crystal in place of a dye sample. The lifetime decay data was fit to a single exponential decay function using a custom MATLAB program.

[4] = Table 1, trifluoroethanol containing 0.1% (v/v) trifluoroacetic acid

SMILES | ε ([1]; Table 1, 10 mM HEPES pH 7.3) | λem ([1]; Table 1, 10 mM HEPES pH 7.3) [nm] | λmax ([1]; Table 1, 10 mM HEPES pH 7.3) [nm] | ϕ ([2]; Table 1, 10 mM HEPES pH 7.3) | ϕ (quantum yield) ([2]; aqueous buffer) | ε ([1]; Table 3, 10 mM HEPES pH 7.3) | λem ([1]; Table 3, 10 mM HEPES pH 7.3) [nm] | λmax ([1]; Table 3, 10 mM HEPES pH 7.3) [nm] | ε (extinction coefficient) ([1]; aqueous buffer) [M⁻¹ cm⁻¹] | ϕ ([2]; Table 3, 10 mM HEPES pH 7.3) | further results
O=C([O-])c1ccccc1-c1c2ccc(=[N+]3CC(C(=O)O)C3)cc-2oc2cc(N3CC(C(=O)O)C3)ccc12 (stereo not shown) [Example 16, 2-(3,6-Bis(3-carboxyazetidin-1-yl)xanthylium-9-yl)benzoate] | 108,000 M^−1 cm^−1 | 568 | 545 | 0.87 | – | – | – | – | – | – | –
O=C([O-])c1ccccc1-c1c2ccc(=[N+]3CCC3)cc-2oc2cc(N3CCC3)ccc12 [Example 7, 2-(3,6-Di(azetidin-1-yl)xanthylium-9-yl)benzoate] | 101,000 M^−1 cm^−1 | 571 | 549 | 0.88 | 0.88 | – | – | – | – | – | τ (fluorescence lifetime) [3]: 3.8 ns; τ [3]: 3.84 ns; ε ([1]; Table 2, 10 mM HEPES pH 7.3): 101,000 M^−1 cm^−1; λem ([1]; Table 2, 10 mM HEPES pH 7.3): 571 nm; λmax ([1]; Table 2, 10 mM HEPES pH 7.3): 549 nm; higher extinction coefficient than the other dyes ([1]; rhodamines of Table 2): ~30%; ϕ ([2]; Table 2, 10 mM HEPES pH 7.3): 0.88; brighter than the pyrrolidine derivative ([2]; one-photon excitation): 60%
CC1(C)C2=CC(=[N+]3CCC3)C=CC2=C(c2ccccc2C(=O)[O-])c2ccc(N3CCC3)cc21 [Example 40, 2-(3,6-Di(azetidin-1-yl)-10,10-dimethylanthracen-9-ylium-9(10H)-yl)benzoate] | 99,000 M^−1 cm^−1 | 631 | 608 | 0.67 | 0.67 | 99,000 M^−1 cm^−1 | 631 | 608 | 99000 | 0.67 | –
O=C(O)c1ccccc1-c1c2ccc(=O)cc-2oc2cc(N3CCC3)ccc12 [Example 59, 2-(6-(Azetidin-1-yl)-3-oxo-3H-xanthen-9-yl)benzoic acid] | – | – | – | – | 0.85 | 59,000 M^−1 cm^−1 | 546 | 519 | – | 0.85 | increase in quantum yield / brightness relative to parent N,N-dialkyl dye [2]: 4 fold
C[Si]1(C)C2=CC(=[N+]3CCC3)C=CC2=C(c2ccccc2C(=O)[O-])c2ccc(N3CCC3)cc21 [Example 30, 2-(3,7-Di(azetidin-1-yl)-5,5-dimethyldibenzo[b,e]silin-10-ylium-10(5H)-yl)benzoate] | – | 664 | 646 | 0.54 | 0.54 | – | 664 | 646 | – | 0.54 | ε ([1]; Table 1, ethanol containing 0.1% (v/v) trifluoroacetic acid): 152,000^b M^−1 cm^−1; ε ([1]; Table 3, ethanol containing 0.1% v/v trifluoroacetic acid): 152,000^a M^−1 cm^−1; ε (extinction coefficient) ([1]; acidic ethanol): 152000 M⁻¹ cm⁻¹; λmax ([1]; text b257, unit not given): 646
CN(C)c1ccc2cc3ccc(N(C)C)cc3nc2c1 [Acridine Orange, reference compound] | – | – | – | – | 0.21 | 50,000 M^−1 cm^−1 | 528 | 493 | – | 0.21 | –
COC1CN(c2ccc3c(-c4ccccc4C(=O)[O-])c4ccc(=[N+]5CC(OC)C5)cc-4oc3c2)C1 (stereo not shown) [Example 11, 2-(3,6-Bis(3-methoxyazetidin-1-yl)xanthylium-9-yl)benzoate] | 109,000 M^−1 cm^−1 | 564 | 541 | 0.88 | – | – | – | – | – | – | –
CN(C)c1ccc2c(-c3ccccc3C(=O)[O-])c3ccc(N(C)C)cc3[o+]c2c1 [TMR, tetramethylrhodamine, reference compound] | – | – | – | – | 0.41 | – | – | – | 78000 | – | τ (fluorescence lifetime) [3]: 2.2 ns; τ [3]: 2.21 ns; ε ([1]; Table 2, 10 mM HEPES pH 7.3): 78,000 M^−1 cm^−1; λem ([1]; Table 2, 10 mM HEPES pH 7.3): 572 nm; λmax ([1]; Table 2, 10 mM HEPES pH 7.3): 548 nm; ϕ ([2]; pH 7.3): 0.41
O=C1OC2(c3ccc(N4CCCCC4)cc3Oc3cc(N4CCCCC4)ccc32)c2ccccc21 [piperidine derivative, reference compound] | – | – | – | – | – | – | – | – | – | – | τ (fluorescence lifetime) [3]: 0.6 ns; τ [3]: 0.59 ns; ε ([1]; Table 2, 10 mM HEPES pH 7.3): 80,000 M^−1 cm^−1; λem ([1]; Table 2, 10 mM HEPES pH 7.3): 586 nm; λmax ([1]; Table 2, 10 mM HEPES pH 7.3): 560 nm; ϕ (quantum yield) [2]: 0.10; ϕ ([2]; pH 7.3): 0.10
CN(C)c1ccc2c(c1)Oc1cc(O)ccc1C21OC(=O)c2ccccc21 (stereo not shown) [dimethyl rhodol, reference compound] | – | – | – | – | – | 60,000 M^−1 cm^−1 | 546 | 518 | 60000 | – | ϕ (quantum yield) [2]: 0.21; ϕ ([2]; pH 7.3): 0.21
O=C(O)CC1CN(c2ccc3c(-c4ccccc4C(=O)[O-])c4ccc(=[N+]5CC(CC(=O)O)C5)cc-4oc3c2)C1 (stereo not shown) [Example 17, 2-(3,6-Bis(3-(carboxymethyl)azetidin-1-yl)xanthylium-9-yl)benzoate] | 111,000 M^−1 cm^−1 | 572 | 549 | 0.87 | – | – | – | – | – | – | –
c1cc2nc3ccc(=[N+]4CCC4)cc-3oc2cc1N1CCC1 [Example 61, 3,7-Di(azetidin-1-yl)phenoxazin-5-ium trifluoroacetate] | – | – | – | – | 0.24 | 99,000 M^−1 cm^−1 | 661 | 647 | 99000 | 0.24 | increase in quantum yield / brightness relative to parent N,N-dialkyl dye [2]: 3.4 fold
CC1(C)C2=CC(=[N+]3CC(F)(F)C3)C=CC2=C(c2ccccc2C(=O)[O-])c2ccc(N3CC(F)(F)C3)cc21 [Example 41, 2-(3,6-Bis(3,3-difluoroazetidin-1-yl)-10,10-dimethylanthracen-9-ylium-9(10H)-yl)benzoate] | – | 609 | 585 | 0.78 | – | – | – | – | – | – | ε [1, 4]: 156,000^a M^−1 cm^−1
Cc1cc(=O)oc2cc(N3CCC3)ccc12 [Example 49, 7-(Azetidin-1-yl)-4-methyl-2H-chromen-2-one] | – | – | – | – | 0.96 | 15,000 M^−1 cm^−1 | 467 | 354 | 15000 | 0.96 | increase in quantum yield / brightness relative to parent N,N-dialkyl dye [2]: five-fold
c1cc2cc3ccc(N4CCC4)cc3nc2cc1N1CCC1 [Example 60, 3,6-Di(azetidin-1-yl)acridine] | – | – | – | – | 0.52 | 47,000 M^−1 cm^−1 | 531 | 492 | – | 0.52 | increase in quantum yield / brightness relative to parent N,N-dialkyl dye [2]: 2.5 fold
Cc1cc(=O)oc2cc(N(C)C)ccc12 [Coumarin 461, reference compound] | – | – | – | – | – | 18,000 M^−1 cm^−1 | 470 | 372 | 18000 | – | ϕ (quantum yield) [2]: 0.19; ϕ ([2]; pH 7.3): 0.19
N#CC1CN(c2ccc3c(-c4ccccc4C(=O)[O-])c4ccc(=[N+]5CC(C#N)C5)cc-4oc3c2)C1 (stereo not shown) [Example 12, 2-(3,6-Bis(3-cyanoazetidin-1-yl)xanthylium-9-yl)benzoate] | 108,000 M^−1 cm^−1 | 557 | 533 | 0.89 | – | – | – | – | – | – | –
CCN(CC)c1ccc2nc3ccc(=[N+](CC)CC)cc-3oc2c1.[O-][Cl+3]([O-])([O-])[O-] [Oxazine 1, reference compound] | – | – | – | – | 0.07 | 111,000 M^−1 cm^−1 | 669 | 655 | 111000 | 0.07 | –
O=C([O-])c1ccccc1-c1c2ccc(=[N+]3CC(F)C3)cc-2oc2cc(N3CC(F)C3)ccc12 (stereo not shown) [Example 10, 2-(3,6-Bis(3-fluoroazetidin-1-yl)xanthylium-9-yl)benzoate] | 113,000 M^−1 cm^−1 | 560 | 536 | 0.87 | – | – | – | – | – | – | –
O=C([O-])c1ccccc1-c1c2ccc(=[N+]3CC(F)(F)C3)cc-2oc2cc(N3CC(F)(F)C3)ccc12 [Example 9, 2-(3,6-Bis(3,3-difluoroazetidin-1-yl)xanthylium-9-yl)benzoate] | 94,000 M^−1 cm^−1 | 549 | 525 | 0.91 | – | – | – | – | – | – | –
CN(C)C1CN(c2ccc3c(-c4ccccc4C(=O)[O-])c4ccc(N5CC(N(C)C)C5)cc4[o+]c3c2)C1 [Example 13, 2-(3,6-Bis(3-(dimethylamino)azetidin-1-yl)xanthylium-9-yl)benzoate] | 111,000 M^−1 cm^−1 | 565 | 542 | 0.57 | – | – | – | – | – | – | –
CC1(C)CN(c2ccc3c(-c4ccccc4C(=O)[O-])c4ccc(=[N+]5CC(C)(C)C5)cc-4oc3c2)C1 [Example 8, 2-(3,6-Bis(3,3-dimethylazetidin-1-yl)xanthylium-9-yl)benzoate] | 110,000 M^−1 cm^−1 | 572 | 550 | 0.83 | – | – | – | – | – | – | –
O=C(O)c1cc2ccc(N3CCC3)cc2oc1=O [Example 51, 7-(Azetidin-1-yl)-2-oxo-2H-chromene-3-carboxylic acid] | – | – | – | – | 0.84 | 24,000 M^−1 cm^−1 | 470 | 387 | 24000 | 0.84 | increase in quantum yield / brightness relative to parent N,N-dialkyl dye [2]: ~30 fold
C[Si]1(C)C2=CC(=[N+]3CC(F)C3)C=CC2=C(c2ccccc2C(=O)[O-])c2ccc(N3CC(F)C3)cc21 (stereo not shown) [Example 31, 2-(3,7-Bis(3-fluoroazetidin-1-yl)-5,5-dimethyldibenzo[b,e]silin-10-ylium-10(5H)-yl)benzoate] | – | 652 | 635 | 0.56 | – | – | – | – | – | – | ε [1, 4]: 167,000^a M^−1 cm^−1
